“And” between values parts separate entries of the source, which are not always exact repeats. Identical values can stand only once. Like-named read-outs stand apart in the source and are kept apart here.
Experiments:
Aedes aegypti [1] = assay: Co-toxicity assay with permethrin (topical); conditions: for 1-h knockdown Co-Toxicity Factor / 24-h mortality Co-Toxicity Factor: >+20 potentiation, <−20 antagonism, −20 to +20 additive
Description: (§1) For Ae. aegypti, synergism assays were performed similar to the topical applications described previously, with the following modifications: 2 doses (2 µg/mosquito and 10 µg/mosquito) of each monoterpenoid were applied as synergists, similar to previous studies exploring the synergistic potential of natural products in combination with an intermediate dose-level of insecticide alone.
(§2) Mosquitoes were transferred to deli cups and kept at a controlled temperature and humidity (the same conditions as described for the topical application of insecticides and monoterpenoids alone). Again, a minimum of 3 separate rearing cohorts were used among replicates of each dose combination.
(§3) Dose responses were modeled via probit analysis, and their resulting estimates were obtained. […] A control correction option (OPTC command) was used to account for responses to the vehicle control treatments. Co-toxicity values were calculated by the method of [29]. A co-toxicity factor of >+20 signifies potentiation, <−20 antagonism, and −20 to +20 additive.

Musca domestica [2] = assay: Co-toxicity assay with permethrin (topical); format: in vivo
Description: […]. Each dose was formulated in a total volume of 1.5 mL of acetone. A dose of permethrin that produced approximately 50% mortality (18 ng) was used as the treatment. Female flies were sorted into groups of 20 per synergism assay and dosed as previously mentioned (i.e., the same way as in the topical toxicity assays). Flies were assessed for mortality at 24 h.

Aedes aegypti [3] = conditions: for 1-h knockdown Co-Toxicity Factor / 24-h mortality Co-Toxicity Factor / 48-h mortality Co-Toxicity Factor: >+20 potentiation, <−20 antagonism, −20 to +20 additive
Description: as §1, §2, §3

acetylcholinesterase [4] = target: acetylcholinesterase (Musca domestica, UniProt Q7YWJ9); assay: In vitro inhibition of acetylcholinesterase (Ellman), head homogenate; format: biochemical
Chain of acetylcholinesterase (Musca domestica, UniProt Q7YWJ9) (Q7YWJ9 81-660): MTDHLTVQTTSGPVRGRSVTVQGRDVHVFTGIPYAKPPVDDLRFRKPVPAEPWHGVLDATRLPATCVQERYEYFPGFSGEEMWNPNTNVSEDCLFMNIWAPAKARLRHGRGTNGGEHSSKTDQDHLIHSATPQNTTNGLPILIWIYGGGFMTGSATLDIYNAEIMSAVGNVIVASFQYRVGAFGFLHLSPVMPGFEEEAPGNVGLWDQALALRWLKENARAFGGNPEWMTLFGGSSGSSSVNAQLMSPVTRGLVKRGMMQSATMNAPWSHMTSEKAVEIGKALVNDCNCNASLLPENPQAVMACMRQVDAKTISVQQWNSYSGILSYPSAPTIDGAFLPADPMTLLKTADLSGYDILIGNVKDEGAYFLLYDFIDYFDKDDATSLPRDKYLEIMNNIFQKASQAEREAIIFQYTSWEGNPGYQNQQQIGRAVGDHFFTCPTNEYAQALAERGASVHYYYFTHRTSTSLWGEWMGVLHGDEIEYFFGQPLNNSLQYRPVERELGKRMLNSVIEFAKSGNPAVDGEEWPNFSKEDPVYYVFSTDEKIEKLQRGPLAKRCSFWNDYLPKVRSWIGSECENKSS
Description: (§4) Acetylcholinesterase inhibition was conducted on homogenates of whole-body Ae. aegypti and M. domestica heads using Ellman’s method. For Ae. aegypti, 10 whole female adults were placed in 2 mL microcentrifuge screw cap tubes with 3–5.2 mm zircon/silica beads and homogenized in 500 μL of sodium phosphate buffer (100 mM, pH 7.8) using a Precellys Evolution bead beater (Bertin Corp., Rockville, MD, USA) set to two 15-s pulses of 5600 rpm. Afterward, 500 μL of Triton X-100 buffer (100 mM sodium phosphate, pH 7.8, 0.6% Triton X-100) was added to each tube (final Triton X-100 concentration: 0.3%), inverted several times to mix up the sample, and then centrifuged at 10,000× g for 4 min at 4 °C. The supernatant was used as the enzyme source. The same process was carried out with M. domestica, except three heads were processed in a 1000:1000 μL sodium phosphate buffer and Triton X-100 buffer in the same manner as just described.
Concentration responses were conducted in the wells of a 96-well, clear, flat-bottomed plate. Inhibitor solutions of methomyl or monoterpenoids were first dissolved in DMSO (dimethyl sulfoxide) and then diluted in sodium phosphate buffer (100 mM, pH 7.8, DMSO concentration of 1%). A volume of 10 μL of the inhibitor solution was added to each well, along with 90 μL of sodium phosphate buffer, and finally 10 μL of homogenate. This was incubated on a plate shaker at 400 rpm for 10 min at room temperature. The final concentrations for methomyl were 100 μM, 10 μM, 1 μM, 100 nM, 10 nM, 1 nM, and 0 nM. For the monoterpenoids, the same range was used except the top concentration was 1 mM and the bottom non-zero concentration was 10 nM. The final concentration of DMSO in all wells was 0.09%.
After the 10-min incubation, 100 μL of Ellman’s reagent prepared in sodium phosphate buffer and each corresponding inhibitor concentration were added to the wells using a multichannel pipette.
as §3

Aedes aegypti [5] = conditions: for LD10 (95% CI) / LD50 (95% CI) / LD90 (95% CI): 24 h, topical, adult females, susceptible strain
Musca domestica [6] = test system: Musca domestica
rat [7] = conditions: cited from earlier work
[8] = under a mercury lamp; cited from earlier work
rat [9] = conditions: in vivo; cited from earlier work
[10] = cited from earlier work
acetylcholinesterase [11] = target: T1, acetylcholinesterase (Aedes aegypti, UniProt Q6A2E2); assay: In vitro inhibition of acetylcholinesterase (Ellman), whole-body homogenate; format: biochemical; conditions: Ae. aegypti preparation, corrected for total protein; read-out: IC50 (95% CI)
T1 construct: The supernatant was used as the enzyme source; from tissue; host or cells: whole bodies of adult female Aedes aegypti, Orlando strain; Triton X-100 supernatant
T1 sequence (Q6A2E2 1-702): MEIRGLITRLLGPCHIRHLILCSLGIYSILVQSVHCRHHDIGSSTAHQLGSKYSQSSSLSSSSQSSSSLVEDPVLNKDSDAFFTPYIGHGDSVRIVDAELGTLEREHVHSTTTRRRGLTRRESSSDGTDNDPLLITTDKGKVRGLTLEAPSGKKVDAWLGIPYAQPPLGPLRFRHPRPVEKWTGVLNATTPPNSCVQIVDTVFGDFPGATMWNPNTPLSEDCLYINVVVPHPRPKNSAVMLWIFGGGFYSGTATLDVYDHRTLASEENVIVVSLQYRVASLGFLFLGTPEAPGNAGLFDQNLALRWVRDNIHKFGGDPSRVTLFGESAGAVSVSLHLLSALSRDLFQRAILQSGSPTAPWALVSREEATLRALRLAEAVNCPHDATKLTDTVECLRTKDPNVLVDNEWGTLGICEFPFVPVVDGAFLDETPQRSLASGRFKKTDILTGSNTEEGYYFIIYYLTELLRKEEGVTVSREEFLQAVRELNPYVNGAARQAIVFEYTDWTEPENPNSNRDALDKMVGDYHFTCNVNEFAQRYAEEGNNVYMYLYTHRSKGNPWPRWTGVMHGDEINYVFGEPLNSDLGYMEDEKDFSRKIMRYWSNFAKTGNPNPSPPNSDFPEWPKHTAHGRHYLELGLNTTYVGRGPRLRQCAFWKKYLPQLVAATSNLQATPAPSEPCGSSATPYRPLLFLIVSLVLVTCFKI
Description: as §4
Concentration responses were conducted in the wells of a 96-well, clear, flat-bottomed plate. Inhibitor solutions of methomyl or monoterpenoids were first dissolved in DMSO (dimethyl sulfoxide) and then diluted in sodium phosphate buffer (100 mM, pH 7.8, DMSO concentration of 1%). […]
Dose responses were modeled via probit analysis, and their resulting estimates were obtained. […] Co-toxicity values were calculated by the method of [29]. […]

rabbit = conditions: ref 32,33 (L-fenchone), 35,36 (Permethrin), 37 (Methomyl); cited from earlier work
[12] = 10 μg synergist per Ae. aegypti
[13] = 10.2 μg PBO, 70 μg carvone, 190 μg menthone, 80 μg fenchone per fly
[14] = near-sublethal synergist dose + permethrin, >+20 potentiation, <−20 antagonism, −20 to +20 additive
[15] = 24 h, topical, adult females, susceptible strain

C=C(C)[C@@H]1CC=C(C)C(=O)C1 [Carvone, L-carvone]
1-h% Mean Knockdown ± SEM, Mixture (Aedes aegypti [1]; 2 μg synergist + permethrin 0.6 ng/mosquito): 100 ± 0%
1-h knockdown Co-Toxicity Factor (Aedes aegypti [1]; 2 μg synergist + permethrin): 23.5
24-h mortality Co-Toxicity Factor (Aedes aegypti [1]; 2 μg synergist + permethrin): 83
1-h% Mean Knockdown ± SEM, Synergist Alone (Aedes aegypti [1]; 2 μg synergist per Ae. aegypti): 5 ± 5%
24-h% Mean Mortality ± SEM, Synergist Alone (Aedes aegypti [1]; 2 μg synergist per Ae. aegypti): 5 ± 2.9%
1-h% Mean Knockdown ± SEM, Mixture (Aedes aegypti [1]; 10 μg synergist + permethrin 0.6 ng/mosquito): 100 ± 0%
1-h knockdown Co-Toxicity Factor (Aedes aegypti [1]; 10 μg synergist + permethrin): 4
24-h mortality Co-Toxicity Factor (Aedes aegypti [1]; 10 μg synergist + permethrin): 76
1-h% Mean Knockdown ± SEM, Synergist Alone (Aedes aegypti [1]; [12]): 20 ± 5.8%
24-h% Mean Mortality ± SEM, Synergist Alone (Aedes aegypti [1]; [12]): 7.5 ± 2.5%
times as strong a synergist of permethrin as PBO (Aedes aegypti [1]; 24-h mortality, 2 μg synergist): 3.3
1-h% Mean Knockdown ± SEM, Synergist Alone (Musca domestica [2]; [13]): 16 ± 11.8%
24-h% Mean Mortality ± SEM, Synergist Alone (Musca domestica [2]; [13]): 0 ± 0%
times as potent a synergist of permethrin as PBO (Musca domestica [2]; 24-h mortality): 1.2
1-h% Mean Knockdown ± SEM, Mixture (Musca domestica [2]; near-sublethal synergist dose (10.2 μg PBO, 70 μg carvone, 190 μg menthone, 80 μg fenchone) + permethrin 18 ng): 100 ± 0%
1-h knockdown Co-Toxicity Factor (Musca domestica [2]; [14]): 3.2
24-h mortality Co-Toxicity Factor (Musca domestica [2]; [14]): 65.6
1-h% Mean Knockdown ± SEM, Synergist Alone (Aedes aegypti [3]; 2 μg applied): 5 ± 5%
24-h% Mean Mortality ± SEM, Synergist Alone (Aedes aegypti [3]; 2 μg applied): 5 ± 2.9%
48-h% Mean Mortality ± SEM, Synergist Alone (Aedes aegypti [3]; 2 μg applied): 5 ± 2.9%
1-h% Mean Knockdown ± SEM, Mixture (Aedes aegypti [3]; 2 μg synergist + methomyl 6 ng/mosquito): 96.7 ± 3.3%
1-h knockdown Co-Toxicity Factor (Aedes aegypti [3]; 2 μg synergist + methomyl): 4.5
24-h mortality Co-Toxicity Factor (Aedes aegypti [3]; 2 μg synergist + methomyl): 23
48-h mortality Co-Toxicity Factor (Aedes aegypti [3]; 2 μg synergist + methomyl): 24
1-h% Mean Knockdown ± SEM, Synergist Alone (Aedes aegypti [3]; 10 μg applied): 20 ± 5.8%
24-h% Mean Mortality ± SEM, Synergist Alone (Aedes aegypti [3]; 10 μg applied): 7.5 ± 2.5%
48-h% Mean Mortality ± SEM, Synergist Alone (Aedes aegypti [3]; 10 μg applied): 15 ± 2.9%
1-h% Mean Knockdown ± SEM, Mixture (Aedes aegypti [3]; 10 μg synergist + methomyl 6 ng/mosquito): 100 ± 0%
1-h knockdown Co-Toxicity Factor (Aedes aegypti [3]; 10 μg synergist + methomyl): −7
24-h mortality Co-Toxicity Factor (Aedes aegypti [3]; 10 μg synergist + methomyl): 28
48-h mortality Co-Toxicity Factor (Aedes aegypti [3]; 10 μg synergist + methomyl): 8
times as effective a synergist of methomyl as PBO (Aedes aegypti [3]; 24-h mortality, 2 μg synergist): 1.7
inhibition of AChE (acetylcholinesterase [4]; at 1 mM, M. domestica preparation): 11.1 ± 2.9%
LD10 (95% CI) (Aedes aegypti [5]): 3900 (1900–5200) b ng/mg body weight
LD50 (95% CI) (Aedes aegypti [5]): 7300 (6700–7900) c ng/mg body weight
LD90 (95% CI) (Aedes aegypti [5]): 14,200 (11,000–26,600) c ng/mg body weight
times as toxic as fenchone (Aedes aegypti [5]; at LD10): about 1.9
times as toxic as fenchone (Aedes aegypti [5]; at LD50): about 1.5
times as toxic as fenchone (Aedes aegypti [5]; at LD90): about 3.0
LD10 (95% CI) (Musca domestica [6]; [15]): 3300 (3100–3400) b ng/mg body weight
LD50 (95% CI) (Musca domestica [6]; [15]): 4300 (4200–4400) b ng/mg body weight
LD90 (95% CI) (Musca domestica [6]; [15]): 5600 (5300–5900) b ng/mg body weight
times as toxic as fenchone (Musca domestica [6]; at LD10): 2.7
times as toxic as menthone (Musca domestica [6]; at LD10): 1.6
times as toxic as fenchone (Musca domestica [6]; at LD50): 3.1
times as toxic as menthone (Musca domestica [6]; at LD50): 1.6
times as toxic as fenchone (Musca domestica [6]; at LD90): 3.6
times as toxic as menthone (Musca domestica [6]; at LD90): 1.6
Dermal LD50 (rat [7]): >4000 (rt) mg compound per kg body weight
half-life [8]: 23 to 27.8 h
Oral LD50 (rat [9]): 5400 (rt) mg compound per kg body weight
half-life ([10]; acidic conditions): ≤ 108 h

CNC(=O)ON=C(C)SC [Methomyl, methomyl, reference compound]
1-h% Mean Knockdown ± SEM, Methomyl Alone (Aedes aegypti [3]; methomyl 6 ng/mosquito): 87.5 ± 9.5%
24-h% Mean Mortality ± SEM, Methomyl Alone (Aedes aegypti [3]; methomyl 6 ng/mosquito): 57.5 ± 25.3%
48-h% Mean Mortality ± SEM, Methomyl Alone (Aedes aegypti [3]; methomyl 6 ng/mosquito): 65 ± 21.8%
IC50 (acetylcholinesterase [11]): 2.5 µM and 1.7 µM
inhibition at 100 µM (acetylcholinesterase [4]; at 100 µM, preparation not given, follows the M. domestica values, read-out: inhibition of AChE): 99.4 ± 0.1%
LD10 (95% CI) (Aedes aegypti [5]): 0.97 (0.27–1.6) a ng/mg body weight
LD50 (95% CI) (Aedes aegypti [5]): 2.7 (1.6–4.3) b ng/mg body weight
LD90 (95% CI) (Aedes aegypti [5]): 7.55 (4.7–22.5) b ng/mg body weight
LD50 (Musca domestica [6]; topical, sufficient toxicity not observed at highest doses applied): > 100 ng
Oral LD50 (rat [9]): 17–24 (rt) mg compound per kg body weight
Dermal LD50 (rabbit): 5880 (rb) mg compound per kg body weight
aerobic soil half-life [10]: approximately 14 d

From PMC10096376, “Insecticidal and Synergistic Potential of Three Monoterpenoids against the Yellow Fever Mosquito, Aedes aegypti (Diptera: Culicidae), and the House Fly, Musca domestica (Diptera: Muscidae)” (Molecules, 2023)
